This note sets out measurements from patent publication USRE39197E1, “Cell adhesion-inhibiting antiinflammatory and immune-suppressive compounds” (Abbott Laboratories, priority 1998, dated 2006).

Assay [1] has as its system adhesion of JY-8 cells (expressing LFA-1) to immobilized ICAM-3. In words: ICAM-3/JY-8 Cell Adhesion Assay. The conditions noted are these: 0.6 μM compound, JY-8 cells on immobilized ICAM-3/Ig; for inhibition at 0.6 µM: Homo sapiens. The class given is cell-based, human. The procedure:
As such, it is expected that these compounds should block the interaction of LFA-1 with other CAM's. […] Compounds of the present invention may be evaluated for their ability to block the adhesion of JY-8 cells (a human EBV-transformed B cell line expressing LFA-1 on its surface) to immobilized ICAM-3, as follows:
ICAM-3/JY-8 Cell Adhesion Assay
For measurement of inhibitory activity in the cell-based adhesion assay, 96-well microtiter plates are were coated with 50 μL of recombinant ICAM-3/Ig (ICOS Corporation) at a concentration of 10 μg/mL in D-PBS w/o without Ca^++ or Mg^++ overnight at 4° C. The wells are were then washed twice with D-PBS, blocked by addition of 100 μL of D-PBS, 1% bovine serum albumin (BSA) by incubation for 1 hour at room temperature, and washed once with RPMI-1640/5% heat-inactivated fetal bovine serum (adhesion buffer). Dilutions of compounds to be assayed for ICAM-3/LFA-1 antagonistic activity are were prepared in adhesion buffer from 10 mM stock solutions in DMSO and 100 μL are were added to duplicate wells. JY-8 cells (a human EBV-transformed B cell line expressing LFA-1 on its surface; 100 μL at 0.75×10^6 cells/ml mL in adhesion buffer) are were then added to the wells. Microtiter plates are were incubated for 30 minutes at room temperature; the adherent cells are were then fixed with 50 μL of 14% glutaraldehyde/D-PBS and were incubated for an additional 90 minutes. The wells are were washed gently with dH2O; 50 μL of dH2O is was added, following followed by 50 μL of 1% crystal violet. After 5 minutes the plates are were washed 3× times with dH2O; 75 μL of dH2O and 225 μL of 95% EtOH are were added to each well to extract the crystal violet from the cells. Absorbance is was measured at […] in an ELISA plate reader. The percent inhibition of a candidate compound is was calculated using the following equation. [formula]

For assay [2], the system named is adherence of JY-8 cells (expressing LFA-1) to immobilized ICAM-1. In words: ICAM-1/JY-8 Cell Adhesion Assay. In kind it is cell-based, human. The procedure: ICAM-1/JT-8 Cell Adhesion Assay
For measurment measurement of inhibotory inhibitory activity in the cell-based adhesion assay, 96-well microtiter plates are were coated with 70 μL of recombinat recombinant ICAM-1/Ig (ICOS Corporation) at a concentration of 5 μg/mL in D-PBS w/o without Ca^++ or Mg++ or Mg^++ overnight at 4° C. The wells are were then washed twice with D-PBS and blocked by addition of 200 μL of D-PBS, 5% fish skin gelatin by incubation for 1 hour at room temperature. […] The percent inhibition of a candidate compound at a given concentration is was calculated using the following equation: [formula] and these concentration/inhibition data are were used to generate does response curves, from which IC50 values are were derived.

Assay [3] concerns the target T1, interaction between the integrin LFA-1 and its adhesion partner ICAM-1 (Homo sapiens, UniProt P20701).
T1 construct: Recombinant LFA-1 (100 μL of 0.7 μg/ml mL, ICOS Corporation) in D-PBS; purchased ICOS Corporation
In words: ICAM-1/LFA-1 Biochemical Interaction Assay. Particulars: 4 μM compound; recombinant LFA-1, biotinylated ICAM-1/Ig. The class given is binding. On the procedure:
Compounds that antagonize the interaction between ICAM-1 and LFA-1 can be identified, and their activities quantitated, using both biochemical and cell-based adhesion assays. A primary biochemical assay measures the ability of the compound in question to block the interaction between the integrin LFA-1 and its adhesion partner ICAM-1, as described below:
ICAM-1/LFA-1 Biochemical Interaction Assay
In the biochemical assay, 100 μL of anti-LFA-1 antibody (ICOS Corporation) at a concentration of 5 μg/ml mL in Dulbecco's phosphate-buffered saaline (D-PBS) is used to coat wells of a 96-well microtiter plate overnight at 4° C. The wells are were then washed twice with wash buffer (D-PBS w/o Ca^++ or Mg^++, 0.05% Tween 20) and blocked by addition of 200 μL of D-PBS, 5% fish skin gelatin. Recombinant LFA-1 (100 μL of 0.7 μg/ml mL, ICOS Corporation) in D-PBS is was then added to each well. Incubation continues continued for 1 hour at room temperature and the wells are were washed twice with wash buffer. Serial dilutions of compounds being assayed as ICAM-1/LFA-1 antagonists, were prepared as 10 mM stock solutions in dimethyl sulfoxide (DMSO), are were diluted in D-PBS, 2 mM MgCl2, 1% fish skin gelatin and 50 μL of each dilution was added to duplicate wells. This is was followed by the addition of 50 μL of 0.8 μg/ml mL biotinylated recombinant ICAM-1/Ig (ICOS Corporation) to the wells and the plates are were incubated at room temperature for 1 hour. The wells are were then washed twice with wash buffer and 100 μL of Europium-labeled Streptavidin (Wallac Oy) diluted 1:100 in Delfia assay buffer (Wallac Oy), are was then added to the wells. Incubation proceeds proceeded for 1 hour at room temperature. The wells are were washed eight times with wash buffer and 100 μL of enhancement solution (Wallac Oy, cat. No. 1244-105) are was added to each well. Incubation proceeds proceeded for 5 minutes with constant mixing. Time-resolved fluorimetry measurements are were made using the a Victor 1420 Multilabel Counter (Wallac Oy) and the percent inhibition of each candidate compound is was calculated using the following equation: [formula] where “background” refers to wells that are were not coated with anti-LFA-1 antibody.

[4] abbreviates: Homo sapiens, JY-8, JY-8 cells on immobilized ICAM-1/Ig.
The mark [5] stands for this setting: JY-8 cells on immobilized ICAM-1/Ig.

T1 sequence (P20701 26-1170): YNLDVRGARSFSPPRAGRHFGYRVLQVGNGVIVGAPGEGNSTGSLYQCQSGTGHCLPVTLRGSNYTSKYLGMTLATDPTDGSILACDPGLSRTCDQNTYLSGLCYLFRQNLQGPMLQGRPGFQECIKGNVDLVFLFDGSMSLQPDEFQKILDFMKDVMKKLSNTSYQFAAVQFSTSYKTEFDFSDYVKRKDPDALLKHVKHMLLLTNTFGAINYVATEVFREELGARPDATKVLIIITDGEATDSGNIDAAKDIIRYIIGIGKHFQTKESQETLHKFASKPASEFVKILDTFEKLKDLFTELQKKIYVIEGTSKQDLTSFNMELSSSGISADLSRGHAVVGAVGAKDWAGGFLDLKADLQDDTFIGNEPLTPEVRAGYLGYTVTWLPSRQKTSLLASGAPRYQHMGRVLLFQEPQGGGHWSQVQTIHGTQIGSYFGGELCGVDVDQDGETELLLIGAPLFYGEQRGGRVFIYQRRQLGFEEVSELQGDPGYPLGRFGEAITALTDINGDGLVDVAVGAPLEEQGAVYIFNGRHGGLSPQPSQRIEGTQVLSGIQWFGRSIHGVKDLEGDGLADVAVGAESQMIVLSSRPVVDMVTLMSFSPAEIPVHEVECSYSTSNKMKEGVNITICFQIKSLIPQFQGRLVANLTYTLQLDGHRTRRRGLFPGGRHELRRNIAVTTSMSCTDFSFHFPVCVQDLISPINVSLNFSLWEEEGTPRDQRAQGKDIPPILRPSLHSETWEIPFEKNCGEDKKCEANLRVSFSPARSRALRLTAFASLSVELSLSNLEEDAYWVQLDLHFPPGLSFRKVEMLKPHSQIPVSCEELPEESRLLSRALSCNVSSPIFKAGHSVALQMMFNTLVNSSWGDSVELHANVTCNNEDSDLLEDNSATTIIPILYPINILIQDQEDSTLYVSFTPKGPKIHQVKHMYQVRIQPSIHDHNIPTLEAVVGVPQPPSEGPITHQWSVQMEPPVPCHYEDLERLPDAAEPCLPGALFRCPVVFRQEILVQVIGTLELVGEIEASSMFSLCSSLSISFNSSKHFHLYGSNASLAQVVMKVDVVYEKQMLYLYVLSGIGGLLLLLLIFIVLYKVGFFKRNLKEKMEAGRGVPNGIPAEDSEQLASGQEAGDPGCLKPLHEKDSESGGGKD
T1 sequence (P05107 23-769 partner): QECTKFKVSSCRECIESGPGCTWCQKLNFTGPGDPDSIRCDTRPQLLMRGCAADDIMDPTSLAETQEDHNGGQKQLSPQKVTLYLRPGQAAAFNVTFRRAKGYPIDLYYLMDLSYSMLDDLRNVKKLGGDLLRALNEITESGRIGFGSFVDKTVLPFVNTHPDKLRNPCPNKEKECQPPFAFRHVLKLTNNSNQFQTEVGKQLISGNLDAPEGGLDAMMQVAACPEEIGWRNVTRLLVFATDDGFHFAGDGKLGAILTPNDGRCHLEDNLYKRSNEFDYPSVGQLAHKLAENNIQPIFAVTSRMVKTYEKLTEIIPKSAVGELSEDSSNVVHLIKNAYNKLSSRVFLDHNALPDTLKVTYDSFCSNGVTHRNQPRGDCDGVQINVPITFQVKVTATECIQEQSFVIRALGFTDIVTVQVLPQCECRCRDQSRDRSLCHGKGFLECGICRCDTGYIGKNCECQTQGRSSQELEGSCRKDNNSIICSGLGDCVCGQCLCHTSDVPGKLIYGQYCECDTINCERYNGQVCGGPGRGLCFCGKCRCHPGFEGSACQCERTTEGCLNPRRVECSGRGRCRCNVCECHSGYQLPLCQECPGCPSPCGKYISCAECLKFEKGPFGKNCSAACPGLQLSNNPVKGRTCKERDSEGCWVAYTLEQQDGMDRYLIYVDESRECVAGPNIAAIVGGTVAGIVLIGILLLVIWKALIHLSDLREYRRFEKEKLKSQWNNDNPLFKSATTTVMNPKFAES

For orientation: inhibition means how much of the control response was suppressed. As a reminder, the IC50 is the concentration that gives 50% inhibition. Read a high IC50 as lower potency. For the compound `CC(=O)N1CCN(C(=O)/C=C/c2ccc(Sc3ccc(Cl)cc3Cl)c(Cl)c2)CC1` [Example 9, (2,4-Dichlorophenyl)[2-chloro-4-(E-((4-acetylpiperazin-1-yl)carbonyl)ethenyl)phenyl]sulfide], testing at 0.6 µM in assay [1] gave an inhibition of 100%. In assay [2] (setting [4]), the IC50 was determined as 130 nM. In addition, in assay [3], the inhibition at 4 µM amounted to 93%.
As for `O=C(/C=C/c1ccc(Sc2ccccc2Br)c(Cl)c1)N1CCOCC1` [Example 12], the “% inhibition @ 0.6 μM” value in assay [1] came to 100%. Besides, in assay [2] (setting [5]), the IC50 amounted to 360 nM. Besides, in assay [3], the “% inhibition @ 4 μM” value worked out at 90%.
For `O=C(/C=C/c1ccc(Sc2ccccc2Br)c(Cl)c1)N1CCCC(CO)C1` (stereo not shown) [Example 15, (2-(Bromophenl)[2-chloro-4-(E-((3-hydroxymethyl)piperidin-1-yl)carbonyl)ethenyl)phenyl]sulfide], the “% inhibition @ 0.6 μM” value in assay [1] came to 100%. For the same compound, in assay [2] (setting [5]), the IC50 came out at 140 nM. The “% inhibition @ 4 μM” value in assay [3] is reported as 88%.
For `O=C(/C=C/c1ccc(Sc2ccccc2Br)c(Cl)c1)N1CCCCC1CO` (stereo not shown) [Example 16, (2-(Bromophenyl)[2-chloro-4-(E-((2-hydroxymethyl)piperidin-1-yl)carbonyl)ethenyl)phenyl]sulfide] the same measures were 100%, 300 nM and 86%.
The like results for `CC(=O)NC1CCN(C(=O)/C=C/c2ccc(Sc3ccccc3Br)c(Cl)c2)C1` (stereo not shown) [Example 17] were, in that order, 100%, 5800 nM and 84%.
With `O=C(/C=C/c1ccc(Sc2ccccc2Br)c(Cl)c1)N1CCC(O)CC1` [Example 18], the “% inhibition @ 0.6 μM” value in assay [1] is on record as 100%. The compound also gave an IC50 in assay [2] (setting [5]) of 130 nM. In addition, in assay [3], the “% inhibition @ 4 μM” value came to 86%.
`CC(=O)N1CCN(C(=O)/C=C/c2ccc(Sc3ccccc3C)c(C(F)(F)F)c2)CC1` [Example 26]: the “% inhibition @ 0.6 μM” value in assay [1] worked out at 100%. The IC50 in assay [2] (setting [5]) came out at 110 nM. Also, in assay [3], the “% inhibition @ 4 μM” value was found to be 94%.
`Cc1ccccc1Sc1ccc(/C=C/C(=O)N2CCOCC2)cc1C(F)(F)F` [Example 27, (2-Methylphenyl)[2-trifluoromethyl-4-(E-((1-morpholinyl)carbonyl)ethenyl)phenyl]sulfide]: the “% inhibition @ 0.6 μM” value in assay [1] is on record as 100%. The compound also returned a half-maximal inhibitory concentration (IC50) in assay [2] (setting [5]) of 160 nM. Besides, the “% inhibition @ 4 μM” value in assay [3] is given as 94%.
`Cc1ccccc1Sc1ccc(/C=C/C(=O)NCCCN2CCCC2=O)cc1C(F)(F)F` [Example 30, (2-Methylphenyl)[2-trifluoromethyl-4-(E-((3-(2-oxopyrrolidin-1-yl)propylamino)carbonyl)ethenyl)phenyl]sulfide]: the inhibition at 0.6 µM in assay [1] amounted to 100%. The same compound gave an IC50 in assay [2] (setting [4]) of 250 nM. In assay [3], the inhibition at 4 µM came out at 93%.
Consider `CC(=O)N1CCN(C(=O)/C=C/c2ccc(Sc3ccc(Cl)cc3Cl)c([N+](=O)[O-])c2)CC1` [Example 32, (2,4-Dichlorophenyl)[2-nitro-4-(E-((4-acetylpiperazin-1-yl)carbonyl)ethenyl)phenyl]sulfide], for which the inhibition at 0.6 µM in assay [1] is 100%. The inhibition at 4 µM in assay [3] came out at 92%.
In turn, `CC(=O)N1CCN(C(=O)/C=C/c2ccc(Sc3ccccc3C(C)C)c([N+](=O)[O-])c2)CC1` [Example 50, (2-iso-Propylphenyl)[2-nitro-4-(E-((4-acetylpiperazin-1-yl)carbonyl)ethenyl)phenyl]sulfide] came in with an inhibition at 0.6 µM in assay [1] of 100%. In assay [2] (setting [4]), this compound showed an IC50 of 10 nM.
Turning to `O=C(/C=C/c1ccc(Sc2ccccc2CN2CCN(Cc3ccc4c(c3)OCO4)CC2)c(Cl)c1)N1CCOCC1` [Example 54, (2-(4-(1,3-Benzodioxolyl-5-methyl)piperazin-1-ylmethyl)phenyl)[2-chloro-4-(E-((1-morpholinyl)carbonyl)ethenyl)phenyl]sulfide], the “% inhibition @ 0.6 μM” value in assay [1] is on record as 100%. In addition, the midpoint of inhibition in assay [2] (setting [5]), the IC50, lay at 360 nM.
Regarding `CCOC(=O)CN(C)Cc1ccccc1Sc1ccc(/C=C/C(=O)N2CCOCC2)cc1Cl` [Example 56, (2-((N-Ethoxycarbonylmethyl-N-methyl)aminomethyl)phenyl)[2-chloro-4-(E-((1-morpholinyl)carbonyl)ethenyl)phenyl]sulfide], the IC50 in assay [2] (setting [5]) was 510 nM. Besides, in assay [3], the “% inhibition @ 4 μM” value is reported as 83%.
In assay [2] (setting [5]), `O=Cc1ccccc1Sc1ccc(/C=C/C(=O)N2CCOCC2)cc1Cl` [Example 57, (2-Formylphenyl)[2-chloro-4-(E-((1-morpholinyl)carbonyl)ethenyl)phenyl]sulfide] displayed an IC50 of 220 nM. In addition, the “% inhibition @ 4 μM” value in assay [3] was 90%.
As to `O=C(/C=C/c1ccc(Sc2ccccc2/C=C/C(=O)N2CCOCC2)c(Cl)c1)N1CCOCC1` [Example 59, (2-(E-((1-Morpholinyl)carbonyl)ethenyl)phenyl)[2-chloro-4-(E-((1-morpholinyl)carbonyl)ethenyl)phenyl]sulfide], the “% inhibition @ 0.6 μM” value in assay [1] was 100%. The compound also came in with an IC50 in assay [2] (setting [5]) of 200 nM.
On to `CN(C)N=Cc1ccccc1Sc1ccc(/C=C/C(=O)N2CCOCC2)cc1Cl` [Example 61, (2-Formylphenyl)[2-chloro-4-(E-((1-morpholinyl)carbonyl)ethenyl)phenyl]sulfide, N,N-dimethyl hydrazone], for which the IC50 in assay [2] (setting [5]) turned out to be 540 nM. In assay [3], the “% inhibition @ 4 μM” value was found to be 88%.
For the compound `O=C(/C=C/c1ccc(Sc2ccccc2NCCCN2CCOCC2)c(Cl)c1)N1CCOCC1` [Example 62, (2-((3-(1-Morpholinyl)propyl)-1-amino)phenyl)[2-chloro-4-(E-((1-morpholinyl)carbonyl)ethenyl)phenyl]sulfide], the “% inhibition @ 0.6 μM” value in assay [1] is recorded as 100%. In assay [2] (setting [5]), the IC50 came out at 340 nM.
Compound `O=C(/C=C/c1ccc(Sc2ccc(Cl)cc2Cl)c(Br)c1)NCCCN1CCCC1=O` [Example 63, (2,4-Dichlorophenyl)[2-bromo-4-(E-((3-(2-oxopyrrolidin-1-yl)propylamino)carbonyl)ethenyl)phenyl]sulfide] had an IC50 in assay [2] (setting [4]) of 850 nM. Also, the inhibition at 4 µM in assay [3] came out at 82%.
In assay [2] (setting [4]), `CC(=O)N1CCN(C(=O)/C=C/c2ccc(Sc3c(Cl)cccc3C=O)c(Cl)c2)CC1` [Example 65, (2-Chloro-6-formylphenyl)[2-chloro-4-(E-((4-acetylpiperazin-1-yl)carbonyl)ethenyl)phenyl]sulfide] registered an IC50 of 1200 nM. For the same compound, the inhibition at 4 µM in assay [3] amounted to 86%.
For “(2-Chlorophenyl)[2-chloro-4-(E-((4-acetylpiperazin-1-yl)carbonyl))2-propenyl)phenyl]sulfide [Example 52]”, the IC50 in assay [2] (setting [5]) stood at 420 nM. For the same compound, in assay [3], the “% inhibition @ 4 μM” value turned out to be 86%.
